Source: ChEMBL document CHEMBL1137081, “Conformationally constrained analogues of diacylglycerol. 20. The search for an elusive binding site on protein kinase C through relocation of the carbonyl pharmacophore along the sn-1 side chain of 1,2-diacylglycerol lactones” (J Med Chem, 2004)
pKi: −log10 of the molar value.

Each compound was assayed against Protein kinase C alpha type (Homo sapiens, UniProt P17252) (assay: Displacement of [20-3H]-phorbol 12,13-dibutyrate (PDBU) from protein kinase C alpha with phosphatidylserine).

pKi	Structure (SMILES)
6.34	CCCCCCCCC(=O)OCCC1(CO)C/C(=C\CC(C(C)C)C(C)C)C(=O)O1 (stereo unspecified)
6.68	CCCCCCCCC(=O)OCCC1(CO)C/C(=C/CC(C(C)C)C(C)C)C(=O)O1 (stereo unspecified)

Second part, the compound before the results:

Structure (SMILES)	pKi
CCCCCCCCCOC(=O)CC1(CO)C/C(=C\CC(C(C)C)C(C)C)C(=O)O1 (stereo unspecified)	7.21
CCCCCCCCCOC(=O)CC1(CO)C/C(=C/CC(C(C)C)C(C)C)C(=O)O1 (stereo unspecified)	7.25
CCCCCCCC(=O)OCCCC1(CO)C/C(=C/CC(C(C)C)C(C)C)C(=O)O1 (stereo unspecified)	6.13
CCCCCCCC(=O)OCCCC1(CO)CC(=CCC(C(C)C)C(C)C)C(=O)O1 (stereo unspecified)	5.84
